According to US9980889B2, “Compositions comprising P-hydroxybenzylamine” (DSM IP ASSETS B.V., priority 2012, dated 2018):
In brackets after ≈: the same amount, converted by molar mass.

Assays:
Assay in all cases: MIC by agar dilution method according to DIN 58 940
P. acnes = format: cell-based, Propionibacterium acnes; conditions: Cutibacterium acnes, ATCC11828; P. acnes ATCC 11828; Mueller-Hinton Agar, 36° C., read after 48 h
Method: (§1) The antimicrobial activity was assessed by determination of the Minimum Inhibitory Concentration (MIC) using the agar dilution method according to DIN 58 940 at the Labor L+SAG, D−Bad Bocklet-Grossenbrach.
(§2) Culture plates with a diameter of 5.5 cm were prepared with fresh, kept liquid (50° C.) Mueller-Hinton Agar (double concentrated, Merck 1.05437)/aqua purificata comprising p-Hydroxybenzylamine (pHBA) in the concentrations indicated in Table 1 according to standard methods. After solidifying and drying (about 1 h at 36° C.), the culture plates were inoculated with 1 μl of a suspension of the respective microorganism with the colony forming unit as outlined in table 1. The inoculated plates were then incubated at 36° C. The MIC's (i.e. the concentrations where still no growth could be observed) were determined after 18 h for E. coli, P. aeruginosa and S. aureus; after 48 h for P. acnes and after 78 h for A. brasiliensis and C. albicans. Per sample two culture plates were prepared. As control incubated and non-incubated cultures were used.
The suspensions of the microorganism's No. 1-4 were prepared by homogeneous suspension of 3-5 colonies of the same morphology in physiological NaCl-solution. The suspensions were adjusted such, that the haze corresponded to the Mac Farland standard 1.0 (about 3.0*10^8 KBE*/ml). […] The colony count was determined using a spiral plater system (see table 2).

A. brasiliensis = format: cell-based; conditions: Aspergillus brasiliensis, ATCC16404; A. brasiliensis ATCC 16404; Mueller-Hinton Agar, 36° C., read after 78 h
Method: as §1, §2
(§3) The suspensions of the microorganism's No. 1-4 were prepared by homogeneous suspension of 3-5 colonies of the same morphology in physiological NaCl-solution. The suspensions were adjusted such, that the haze corresponded to the Mac Farland standard 1.0 (about 3.0*10^8 KBE*/ml). For the preparation of the suspensions of the microorganisms 5 and 6, the microorganisms have been taken with a sterile swab and diluted in an amount of physiological NaCl solution such, that the haze corresponded to the Mac Farland standard 1.0. Afterwards the suspensions of the microorganisms 1 and 3-6 have been further diluted with physiological NaCl-solution in a ratio of 1:10. The colony count was determined using a spiral plater system (see table 2).

C. albicans = format: cell-based; conditions: Candida albicans, ATCC10231; C. albicans ATCC 10231; Mueller-Hinton Agar, 36° C., read after 78 h
Method: as §1, §2, §3

E. coli = format: cell-based; conditions: Escherichia coli, ATCC8739; E. coli ATCC 8739; Mueller-Hinton Agar, 36° C., read after 18 h
Method: as §1, §2, §3

P. aeruginosa = format: cell-based; conditions: Pseudomonas aeruginosa, ATCC9027; P. aeruginosa ATCC 9027; Mueller-Hinton Agar, 36° C., read after 18 h
Method: as §1, §2, §3

S. aureus = format: cell-based; conditions: Staphylococcus aureus, ATCC6538; S. aureus ATCC 6538; Mueller-Hinton Agar, 36° C., read after 18 h
Method: as §1, §2, §3

Compound `NCc1ccc(O)cc1` [pHBA, p-Hydroxybenzylamine] has an MIC (P. acnes) of 7900 µg/mL (≈ 64.1 mM), an MIC (A. brasiliensis) of 5270 µg/mL (≈ 42.8 mM) and an MIC (C. albicans) of 5270 µg/mL (≈ 42.8 mM). The MIC (E. coli) was 5270 µg/mL (≈ 42.8 mM), the MIC (P. aeruginosa) was 5270 µg/mL (≈ 42.8 mM) and the MIC (S. aureus) was 5270 µg/mL (≈ 42.8 mM).
